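Cells were grown in 96-well plates and exposed to each compound for 48 hours at five concentrations; endpoints were interpolated linearly between bracketing concentrations, or set to the highest concentration if not reached. GI50: concentration for 50% inhibition of growth. At the TGI there is no net growth.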
Tests used:
Test in all cases: NCI tumour cell line growth inhibition, 48 h
CCRF-CEM leukemia = tested on: CCRF-CEM leukemia
M14 melanoma = tested on: M14 melanoma
COLO 205 colon = tested on: COLO 205 colon
T-47D breast = tested on: T-47D breast
SF-295 CNS = tested on: SF-295 CNS
ACHN renal = tested on: ACHN renal
SK-OV-3 ovarian = tested on: SK-OV-3 ovarian
HOP-62 NSCLC = tested on: HOP-62 NSCLC
OVCAR-3 ovarian = tested on: OVCAR-3 ovarian
SR leukemia = tested on: SR leukemia

SMILES | GI50 (CCRF-CEM leukemia) | TGI (CCRF-CEM leukemia) | GI50 (M14 melanoma) | TGI (M14 melanoma) | GI50 (COLO 205 colon) | TGI (COLO 205 colon) | GI50 (T-47D breast) | TGI (T-47D breast) | GI50 (SF-295 CNS) | TGI (SF-295 CNS) | GI50 (ACHN renal) | TGI (ACHN renal) | GI50 (SK-OV-3 ovarian) | TGI (SK-OV-3 ovarian) | GI50 (HOP-62 NSCLC) | TGI (HOP-62 NSCLC) | GI50 (OVCAR-3 ovarian) | TGI (OVCAR-3 ovarian) | GI50 (SR leukemia) | TGI (SR leukemia)
COCCNc1cc(NC(=O)N2CCCc3cc(CN4CCN(C)CC4=O)c(C=O)nc32)ncc1C#N | > 50 µM | > 50 µM | > 50 µM | > 50 µM | 27.2 µM | > 50 µM | 46.5 µM | > 50 µM | > 50 µM | > 50 µM | 23 µM | > 50 µM | > 50 µM | > 50 µM | > 50 µM | > 50 µM | > 50 µM | > 50 µM | > 50 µM | > 50 µM
Nc1ccc(-c2ccc(N)cc2I)c(I)c1 | 8.14 µM | 43.3 µM | 12.2 µM | 34.4 µM | 17 µM | 38.1 µM | 18.5 µM | 59.1 µM | 15.5 µM | 33.9 µM | 22.6 µM | 89.6 µM | 17 µM | 44.4 µM | 17.5 µM | 39.4 µM | 16.6 µM | 35.3 µM | 5.1 µM | 39.8 µM
O=C(OCCBr)c1ccc(Cl)c([N+](=O)[O-])c1 | 15.6 µM | 38.7 µM | 16.4 µM | 36.6 µM | 16.8 µM | 31.5 µM | 2.29 µM | 5.49 µM | 15.5 µM | 30.5 µM | 18.8 µM | 34.4 µM | 17.2 µM | 31 µM | 1.91 µM | 3.63 µM | 2.69 µM | 6.43 µM | 7.9 µM | 31.5 µM
COc1cc(C2C3=C(COC3=O)Nc3cc4c(cc32)CCC4)cc2c1OCO2 (stereo not given) | 0.0452 µM | 14.6 µM | 0.0743 µM | 3.48 µM | 0.0407 µM | 0.139 µM | 12 µM | 59.8 µM | 0.0308 µM | 10.8 µM | 0.114 µM | 21.4 µM | 0.0335 µM | 1.01 µM | 0.0471 µM | 12 µM | 0.0231 µM | 0.047 µM | 0.0453 µM | > 34.5 µM
CCC(/C=C/c1ccccc1)=N\Nc1ccc(Cl)c(Cl)c1 | – | > 100 µM | – | > 100 µM | – | > 100 µM | – | > 100 µM | – | > 100 µM | – | 76.9 µM | – | > 100 µM | – | > 100 µM | – | > 100 µM | – | > 100 µM
CC(C)c1ccc(Nc2nccc(-c3cnn4ncccc34)n2)cc1 | 0.703 µM | > 20.5 µM | 0.688 µM | 2.48 µM | 0.306 µM | 0.704 µM | 0.469 µM | > 6.22 µM | 0.523 µM | 12.2 µM | 0.189 µM | > 10.3 µM | 0.93 µM | 2.89 µM | 0.563 µM | 2.59 µM | 0.516 µM | > 6.26 µM | 0.234 µM | > 25 µM
CCCc1cc(=O)n2c(C(=O)Nc3ccccc3OC)c(C(=O)Nc3ccc(F)cc3)sc2n1 | 24.7 µM | 59 µM | 23.3 µM | 110 µM | 38.2 µM | > 160 µM | 71.8 µM | > 160 µM | 19 µM | 61.7 µM | 5.11 µM | 18.7 µM | 22.2 µM | 96.7 µM | 2.21 µM | 13.9 µM | 9.56 µM | 34.1 µM | 4.57 µM | 25.3 µM
CC1(C)CC[C@]2(C(=O)N3CCOCC3)CC[C@]3(C)C(=CC[C@@H]4[C@@]5(C)C/C(=C/c6ccncc6)C(=O)C(C)(C)[C@@H]5CC[C@]43C)[C@@H]2C1 | 0.871 µM | > 100 µM | 1.41 µM | 5.23 µM | – | – | 0.781 µM | > 100 µM | 2.03 µM | 34.8 µM | 2.2 µM | 21.7 µM | 3.58 µM | > 100 µM | 1.76 µM | 6.73 µM | 2.06 µM | > 100 µM | 0.365 µM | > 100 µM
COC(=O)C1=C(OC(=O)c2ccc(Cl)cc2)C(C(=O)OC)[C@@]2(O)[C@@H](C(=O)OC)C(c3ccccc3Cl)C[C@@H]1[C@@H]2C(=O)OC (stereo not given in full) | 4.3 µM | > 100 µM | 4.07 µM | 90.1 µM | 23.3 µM | > 100 µM | 9.39 µM | > 100 µM | – | – | 3.49 µM | > 100 µM | 19.8 µM | 91.9 µM | 15.9 µM | > 100 µM | 1.76 µM | 5.95 µM | 8.11 µM | > 100 µM
CCCCCCCOc1c(OC)cc(C2CC(=O)Nc3c2c(C)nn3-c2nc3ccccc3[nH]2)cc1OC (stereo not given) | 4.15 µM | > 100 µM | 4.01 µM | > 100 µM | 4.34 µM | > 100 µM | 3.95 µM | > 100 µM | 2.33 µM | 7.74 µM | 3.21 µM | > 100 µM | 2.77 µM | 7.55 µM | 3.09 µM | 14.2 µM | – | – | 3.08 µM | > 100 µM
O=C(CCCSc1nc(-c2ccccc2)cc(-c2ccc(Cl)cc2)n1)NO | 0.882 µM | 13 µM | – | – | 2.9 µM | 12.1 µM | 1.92 µM | 16.2 µM | 2.03 µM | 5.71 µM | 0.399 µM | 4.38 µM | 3.12 µM | 12.4 µM | 1.04 µM | 17.4 µM | 0.675 µM | 9.38 µM | 0.364 µM | 13.2 µM
CSc1ccccc1C#Cc1ccccc1C#CCCCCO | 10.3 µM | 46.5 µM | – | – | 15.8 µM | 31.5 µM | 15 µM | 34.5 µM | 1.54 µM | 6.3 µM | 11.3 µM | 23.4 µM | 15.8 µM | 30.1 µM | 24.9 µM | > 100 µM | 14.7 µM | 28.7 µM | 3.54 µM | 17.5 µM
